# Source: patent US10934286B2, “Heterocyclic sulfones as ROR gamma modulators” (BRISTOL-MYERS SQUIBB COMPANY, priority 2016, dated 2021)
# Target: T1, RORγ receptor (Homo sapiens, UniProt P51449)
# T1 construct: Jurkat pEx/Gal/hRORγ CLBD/HYG pG51uc/blast; expressed in transfected cells
# T1 sequence (P51449 269-508 limits assumed): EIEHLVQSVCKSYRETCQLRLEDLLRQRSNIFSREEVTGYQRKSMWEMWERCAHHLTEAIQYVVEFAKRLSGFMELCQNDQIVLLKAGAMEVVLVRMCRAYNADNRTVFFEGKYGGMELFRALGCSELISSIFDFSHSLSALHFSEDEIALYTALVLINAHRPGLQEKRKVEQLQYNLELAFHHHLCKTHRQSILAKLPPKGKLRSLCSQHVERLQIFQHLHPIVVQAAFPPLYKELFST
# Test: General RORγ Gal4 reporter assay (inverse agonist activity, inhibition of luminescence)
# Format: cell-based
# Settings: Gal4-luciferase reporter in Jurkat cells stably over-expressing hRORγ LBD; overnight incubation; 40 μM to 0.67 nM
# Method: General RORγ Gal4 Reporter Assay Inverse agonist activity of potential ligands to RORγ was measured by inhibition of luminescence in a Gal4-luciferase reporter assay in Jurkat cells.
# The following day, cells were lysed with 10 μL of Steady-Glo Luciferase Assay System (Promega Cat. No. EZ550), and analyzed immediately. IC50 values were determined.
row,Structure (SMILES),IC50 [nM]
1,O=C(O)[C@H]1CC[C@H](C(=O)N2CCC3(S(=O)(=O)c4ccccc4)c4ccc(C(F)(C(F)(F)F)C(F)(F)F)nc4CCC23)CC1 (stereo partly drawn) [Example 28],8
2,C[C@H]1C[C@H](C(=O)O)CC[C@H]1C(=O)N1CCC2(S(=O)(=O)c3ccccc3)c3ccc(C(F)(C(F)(F)F)C(F)(F)F)nc3CCC12 (stereo partly drawn) [Example 29],13
3,C[C@H]1C[C@H](C(=O)O)CC[C@H]1C(=O)N1CCC2(S(=O)(=O)c3ccc(F)cc3)c3cnc(C(F)(C(F)(F)F)C(F)(F)F)cc3CCC12 (stereo partly drawn) [Example 30],51
4,C[C@H]1C[C@H](C(=O)O)CC[C@H]1C(=O)N1CCC2(S(=O)(=O)c3ccc(F)cc3)c3ccc(C(F)(C(F)(F)F)C(F)(F)F)nc3CCC12 (stereo partly drawn) [Example 32],5
5,O=C(O)[C@H]1CC[C@H](C(=O)N2CCC3(S(=O)(=O)c4ccc(F)cc4)c4ccc(C(F)(C(F)(F)F)C(F)(F)F)nc4CCC23)CC1 (stereo partly drawn) [Example 33],8
6,O=C1N[C@H](C(=O)N2CCC3(S(=O)(=O)c4cccc(F)c4)c4cnc(C(F)(C(F)(F)F)C(F)(F)F)cc4CCC23)[C@H]2C[C@@H]12 (stereo partly drawn) [Example 35],3300
7,O=C(O)[C@H]1CC[C@H](C(=O)N2CCC3(S(=O)(=O)c4ccc(F)cc4)c4ccc(OCc5c(Cl)cccc5Cl)nc4CCC23)CC1 (stereo partly drawn) [Example 40],12
8,CC(C)(O)CN1C(=O)[C@H](F)C[C@@H]1C(=O)N1CCC2(S(=O)(=O)c3ccc(F)cc3)c3cnc(C(F)(C(F)(F)F)C(F)(F)F)cc3CCC12 (stereo partly drawn) [Example 45],528
9,[2H]C([2H])([2H])N1C(=O)[C@H](F)C[C@H]1C(=O)N1CCC2(S(=O)(=O)c3ccc(F)cc3)c3ccc(C(F)(C(F)(F)F)C(F)(F)F)nc3CCC12 (stereo partly drawn) [Example 64],24
10,[2H]C([2H])([2H])N1C(=O)[C@H](F)C[C@H]1C(=O)N1CCC2(S(=O)(=O)c3cccc(F)c3)c3cnc(C(F)(C(F)(F)F)C(F)(F)F)cc3CCC12 (stereo partly drawn) [Example 65],91
11,[2H]C([2H])([2H])N1C(=O)[C@H](F)C[C@H]1C(=O)N1CCC2(S(=O)(=O)c3ccccc3)c3ccc(C(F)(C(F)(F)F)C(F)(F)F)nc3CCC12 (stereo partly drawn) [Example 66],31

# Further lines, results first:
row,IC50 [nM],Structure (SMILES)
1,9,CC(C)(CO)CN1C(=O)[C@H](F)C[C@H]1C(=O)N1CCC2(S(=O)(=O)c3cccc(F)c3)c3ccc(C(F)(C(F)(F)F)C(F)(F)F)nc3CCC12 (stereo partly drawn) [Example 37]
2,410,CC(C)(O)CN1C(=O)[C@H](F)C[C@@H]1C(=O)N1CCC2(S(=O)(=O)c3cccc(F)c3)c3ccc(C(F)(C(F)(F)F)C(F)(F)F)nc3CCC12 (stereo partly drawn) [Example 46]
3,29,CC(C)(O)CN1C(=O)[C@H](F)C[C@H]1C(=O)N1CCC2(S(=O)(=O)c3ccc(F)cc3)c3cnc(C(F)(C(F)(F)F)C(F)(F)F)cc3CCC12 (stereo partly drawn) [Example 47]
4,26,CC(C)(O)CN1C(=O)[C@H](F)C[C@H]1C(=O)N1CCC2(S(=O)(=O)c3cccc(F)c3)c3ccc(C(F)(C(F)(F)F)C(F)(F)F)nc3CCC12 (stereo partly drawn) [Example 48]
5,18,CC(C)(O)CN1C(=O)[C@@H]2C[C@@H]2[C@H]1C(=O)N1CCC2(S(=O)(=O)c3cccc(F)c3)c3ccc(C(F)(C(F)(F)F)C(F)(F)F)nc3CCC12 (stereo partly drawn) [Example 49]
6,14,CC(C)(O)CN1C(=O)[C@H](F)C[C@H]1C(=O)N1CCC2(S(=O)(=O)c3cccc(F)c3)c3cnc(C(F)(C(F)(F)F)C(F)(F)F)cc3CCC12 (stereo partly drawn) [Example 50]
7,1810,CC(C)(O)CN1C(=O)[C@@H]2C[C@@H]2[C@H]1C(=O)N1CCC2(S(=O)(=O)c3cccc(F)c3)c3cnc(C(F)(C(F)(F)F)C(F)(F)F)cc3CCC12 (stereo partly drawn) [Example 52]
8,18,CC(C)(O)CN1C(=O)[C@H](F)C[C@H]1C(=O)N1CCC2(S(=O)(=O)c3ccccc3)c3ccc(C(F)(C(F)(F)F)C(F)(F)F)nc3CCC12 (stereo partly drawn) [Example 53]
9,31,CC(C)(O)CN1C(=O)CCN1C(=O)N1CCC2(S(=O)(=O)c3ccc(F)cc3)c3cnc(C(F)(C(F)(F)F)C(F)(F)F)cc3CCC12 (stereo not drawn) [Example 55]
10,28,CC(C)(O)CN1C(=O)CCN1C(=O)N1CCC2(S(=O)(=O)c3cccc(F)c3)c3ccc(C(F)(C(F)(F)F)C(F)(F)F)nc3CCC12 (stereo not drawn) [Example 56]
11,21,CC(C)(O)CN1C(=O)CCN1C(=O)N1CCC2(S(=O)(=O)c3cccc(F)c3)c3cnc(C(F)(C(F)(F)F)C(F)(F)F)cc3CCC12 (stereo not drawn) [Example 57]
12,12,CC(C)(O)CN1C(=O)CCN1C(=O)N1CCC2(S(=O)(=O)c3ccccc3)c3ccc(C(F)(C(F)(F)F)C(F)(F)F)nc3CCC12 (stereo not drawn) [Example 58]
13,13,[2H]C([2H])([2H])N1C(=O)[C@H](F)C[C@H]1C(=O)N1CCC2(S(=O)(=O)c3cccc(F)c3)c3ccc(C(F)(C(F)(F)F)C(F)(F)F)nc3CCC12 (stereo partly drawn) [Example 63]
